Laboratory results taken from article PMC12040169 (PLOS Biology, 2025).

Assay: in vitro
Conditions: human, hela cells, % viability

Row | Compound | viability at 28.5 h, 10 µM [%]
1 | Cc1ccc(N2C(=O)CC(Sc3ncccc3C(=O)O)C2=O)c(C)c1 (stereo not shown) [CBK269377] | 91.9
2 | C=CCNS(=O)(=O)c1ccc(NC(=O)Cc2cccc3ccccc23)cc1 [CBK269379] | 109
3 | O=C(O)c1cc(C(=O)O)n(Cc2ccccc2Cl)n1 [CBK269381] | 88.1
4 | CCOC(=O)Cn1c(CN2CCCCC2C)nc2c1c(=O)n(C)c(=O)n2C (stereo not shown) [CBK269382] | 95.1
5 | Cc1nc(N)sc1-c1nnc(SC/C=C/c2ccccc2)n1C [CBK269383] | 81.7
6 | N#CC(C(=O)CN1CCN(Cc2ccccc2)CC1)c1ccccc1 (stereo not shown) [CBK269386] | 99.6
7 | O=C(Nc1cccc2ccccc12)C(c1ccccc1)N1CCOCC1 (stereo not shown) [CBK269388] | 102
8 | C=CCn1c(COc2cccc(Cl)c2)nnc1SCC(=O)O [CBK269389] | 90.2
9 | O=C(Nc1ccccc1[N+](=O)[O-])C(c1ccccc1)N1CCOCC1 (stereo not shown) [CBK269390] | 94
10 | O=S(=O)(Nc1ccccn1)N1CCOCC1 [CBK269391] | 86.9
11 | O=CNCCCc1nc2ccccc2n1CCc1ccccc1 [CBK269393] | 89.5
12 | Cc1ccnc(SCCn2c(N(C)Cc3ccccc3)nc3c2c(=O)n(C)c(=O)n3C)n1 [CBK269394] | 98.9
13 | COCCN(Cc1cc2cccc(C)c2nc1O)S(C)(=O)=O [CBK269395] | 99.9
14 | CCCN1CCN(c2ncnc3sc(C4COc5ccccc5O4)cc23)CC1 (stereo not shown) [CBK269396] | 98.1
15 | COc1ccc(N2CCN(CC(=O)N3c4ccccc4Sc4ccccc43)CC2)cc1 [CBK269398] | 89.1
16 | Cc1cc(C)n(-c2nc3ccccc3nc2N2CCN(S(=O)(=O)c3ccccc3)CC2)n1 [CBK269399] | 79.9
17 | COC(=O)c1ccccc1NC(=O)CC1Sc2ccccc2NC1=O (stereo not shown) [CBK269400] | 90.2
18 | COc1ccc(-c2coc3c(C)c4oc(=O)c(CC(=O)O)c(C)c4cc23)cc1 [CBK269403] | 105
19 | O=C(CCNS(=O)(=O)c1ccc(Cl)cc1)N1CCN(Cc2ccccc2)CC1 [CBK269405] | 101
20 | O=C(O)Cc1ccc(NC(=O)C2Cc3ccccc3C(=O)O2)cc1 (stereo not shown) [CBK269406] | 85.1
21 | O=C(COc1nc2cc3c(nc2o1)CCC3)c1ccccc1 [CBK269407] | 75.5
22 | Cc1ccc2cc(CN(Cc3ccco3)S(C)(=O)=O)c(O)nc2c1 [CBK269409] | 105
23 | Cc1cc(OCC(=O)Nc2ccccc2N2CCN(S(C)(=O)=O)CC2)ccc1Cl [CBK269410] | 103

Row | Compound | viability at 28.5 h, 10 µM [%]
24 | CC1Oc2ccccc2OC1C(=O)Nc1ccc([N+](=O)[O-])cc1Cl (stereo not shown) [CBK269412] | 85.8
25 | CCN1CCN(Cc2nc3c([nH]2)c(=O)n(C)c(=O)n3C)CC1 [CBK269413] | 90.5
26 | CN(C)CCCNc1ccc(C(F)(F)F)cn1 [CBK269414] | 86.2
27 | O=C(CCCc1nc(-c2ccc(Cl)cc2)no1)NCc1cccnc1 [CBK269415] | 90.4
28 | Cc1ccc(S(=O)(=O)N2CCN(CCC(=O)O)CC2)cc1C [CBK269416] | 93.3
29 | Cc1ccc2nsnc2c1NC(=O)COc1ccccc1F [CBK269420] | 105
30 | O=C(CS(=O)(=O)c1ccccc1)Nc1ccc(OCc2ccccc2)cc1 [CBK269421] | 98.4
31 | CCN1CCN(CC(=O)C(C#N)c2ccccc2)CC1 (stereo not shown) [CBK269423] | 92.8
32 | O=S(=O)(c1ccccc1)N(Cc1cc2ccccc2nc1O)CC1CCCO1 (stereo not shown) [CBK269424] | 93.3
33 | CCN(CC(=O)Nc1ccccc1OC)S(=O)(=O)c1ccccc1 [CBK269428] | 97.1
34 | O=C(O)COc1noc2nc3c(cc12)CCCCC3 [CBK269429] | 97.7
35 | Cc1ccc(-c2noc(CN(C(=O)c3ccc(Br)o3)C(C)C)n2)cc1 [CBK269440] | 83.2
36 | COc1ccc(S(=O)(=O)NC(C)C(=O)NCc2ccncc2)cc1 (stereo not shown) [CBK269441] | 107
37 | COC(=O)Cn1c(CN2CCN(c3ccccc3F)CC2)nc2c1c(=O)n(C)c(=O)n2C [CBK269444] | 93.1
38 | O=C(NCCN1CCOCC1)NC(=O)c1ccc(Cl)cc1 [CBK269446] | 88.2
39 | COC(=O)c1c(NC(=O)CC2NCCNC2=O)sc(C)c1C (stereo not shown) [CBK269447] | 92.1
40 | CC1CN(Cc2nc3c(c(=O)[nH]c(=O)n3C)n2Cc2cccc(Cl)c2)CC(C)O1 (stereo not shown) [CBK269450] | 105
41 | CCCc1cc(C(=O)OC)c(NC(=O)CC2Nc3ccccc3NC2=O)s1 (stereo not shown) [CBK269451] | 107
42 | CN1CCN(c2nc3c(c(=O)n(C)c(=O)n3C)n2CCSc2nc3ccccc3o2)CC1 [CBK269452] | 90
43 | CCOC(=O)Cn1c(CN2CCC(Cc3ccccc3)CC2)nc2c1c(=O)n(C)c(=O)n2C [CBK269454] | 89.8
44 | N#Cc1nc(/C=C/c2cccs2)oc1NCCCn1ccnc1 [CBK269455] | 84.1
45 | COc1cc(Cl)c(C)cc1NC(=O)c1ncn(-c2ccccc2)n1 [CBK269456] | 101
46 | Cc1cccc(/C(C#N)=C\c2cn(CC(=O)O)c3ccccc23)c1 [CBK269457] | 110

Row | Compound | viability at 28.5 h, 10 µM [%]
47 | Cc1cc(Nc2ccccc2C)c2cc(C(=O)O)ccc2n1 [CBK269458C] | 103
48 | O=C(NCc1ccco1)NC(=O)c1ccc(Cl)cc1 [CBK269461] | 95.8
49 | COc1ccc(NC(=O)NC(=O)c2ccc(Cl)cc2)c(OC)c1 [CBK269462] | 93.1
50 | FC(F)(F)c1cccc(OCc2nnn[nH]2)c1 [CBK269466] | 88.4
51 | O=C(CSc1nc(O)cc(O)n1)Nc1ccc(I)cc1 [CBK269467] | 103
52 | CS(=O)(=O)c1ccccc1S(=O)(=O)N1CCN(c2nc3ccccc3s2)CC1 [CBK269468] | 97.7
53 | Cn1c(=O)[nH]c(=O)c2c1nc(SCCN1CCCCC1)n2CCCc1ccccc1 [CBK269469] | 91.7
54 | CC12CCC(C(=O)O)(c3nc4c(ccc5ncccc54)nc31)C2(C)C (stereo not shown) [CBK269470] | 91.1
55 | COc1cc(NC(=O)CS(=O)(=O)c2ccccc2)c(OC)cc1Cl [CBK269471] | 86.7
56 | Clc1ccc(OCc2n[nH]c(-c3ccccn3)n2)cc1 [CBK269472] | 90.2
57 | Fc1ccc(OCc2nnn[nH]2)c(F)c1 [CBK269473] | 99.9
58 | Cc1ccc(SCC(=O)NCc2nc(-c3ccccc3)no2)cc1 [CBK269474] | 102
59 | NC(=O)COc1ccc(/C=C/c2cc(C(F)(F)F)[nH]c(=O)n2)cc1 [CBK269475] | 90.6
60 | N#Cc1c(NC(=O)CSc2ncnc3c2cnn3-c2ccccc2)sc2c1CCCC2 [CBK269478] | 92.6
61 | COc1ccc(S(=O)(=O)NC(C)C(=O)Nc2cc(Cl)ccc2OC)cc1 (stereo not shown) [CBK269479] | 104
62 | O=C(NCc1cccnc1)C(=O)Nc1ccc(F)cc1F [CBK269481] | 101
63 | Cc1ccc(NC(=O)Nc2ccc(F)cc2)cc1S(=O)(=O)N(C)C [CBK269482] | 92.8
64 | CC(C)(C)Nc1nc(OCC#N)nc(N2CCCCC2)n1 [CBK269483] | 97.2
65 | CS(=O)(=O)c1ncc(Cl)c(C(=O)N(Cc2ccccc2)c2ccccn2)n1 [CBK269489] | 95
66 | O=S(=O)(Nc1ccccn1)N1CCCCC1 [CBK269490] | 92.3
67 | Cc1c(C(=O)Nc2sc3c(c2C(=O)NCc2cccnc2)CCC3)oc2ccccc12 [CBK269491] | 87.8
68 | COc1ccc(C)cc1S(=O)(=O)N(C)CC(=O)Nc1cccc(Cl)c1 [CBK269493] | 88.5
69 | c1ccc2c(OCc3nnn[nH]3)cccc2c1 [CBK269495] | 103

Row | Compound | viability at 28.5 h, 10 µM [%]
70 | CC1(C)C2CCC1(CS(=O)(=O)N1CCC(C(N)=O)CC1)C(=O)C2 (stereo not shown) [CBK269499] | 102
71 | CCN(CC(=O)NCc1cccnc1)S(=O)(=O)c1ccc(F)cc1 [CBK269503] | 85.3
72 | CN1CCN(C(=O)C2CCN(S(=O)(=O)c3ccc4ccccc4c3)CC2)CC1 [CBK269504] | 88.1
73 | COC(=O)c1c(NC(=O)C(=O)NCc2ccccn2)sc2c1CCCC2 [CBK269505] | 95.2
74 | CC(=O)Cn1c(CN2CCOCC2)nc2c1c(=O)n(C)c(=O)n2C [CBK269508] | 97.5
75 | COc1ccc(S(=O)(=O)N2CCN(C)CC2)cn1 [CBK269511] | 85.9
76 | O=C(O)c1cc(-n2c(S)nnc2-c2ccc3ccccc3n2)ccc1Cl [CBK269512] | 86.1
77 | O=C(O)c1ccc(CSc2nc(-c3ccccc3)cc(C(F)(F)F)n2)o1 [CBK269514] | 105
78 | O=C(CCCc1nc(-c2ccccc2Cl)no1)NCc1cccnc1 [CBK269516] | 77.8
79 | CS(=O)(=O)N(Cc1cc2ccccc2nc1O)CC1CCCO1 (stereo not shown) [CBK269517] | 86.1
80 | COc1ccc2ncc(C(=O)O)c(Nc3ccccc3C)c2c1 [CBK269522C] | 104
81 | Cn1c(=O)c2c(nc(CN3CCN(Cc4ccccc4)CC3)n2CCc2ccccc2)n(C)c1=O [CBK269523] | 90.9
82 | Cc1ccc(S(=O)(=O)NC(=O)N(Cc2ccccc2)Cc2ccco2)cc1 [CBK269524] | 93
83 | CCOc1ccc(S(=O)(=O)NCc2ccncc2)cc1NC(C)=O [CBK269527] | 88
84 | CC1Cc2ccccc2N1C(=O)CSc1nnc(N)s1 (stereo not shown) [CBK269530] | 94.3
85 | CCn1c(SCC(=O)Nc2cc(C)ccc2F)nnc1-c1ccccc1O [CBK269532] | 91.4
86 | CCc1nnc2sc(-c3ccccc3Br)nn12 [CBK269533] | 67.4
87 | CC(=O)Nc1cccc(NC(=O)c2ccc(CN3CCc4ccccc4C3)cc2)c1 [CBK269534] | 92.2
88 | Cc1cccc(OCCn2c(CCNC=O)nc3ccccc32)c1C [CBK269539] | 104
89 | COC(=O)c1ccc(OCc2nnn[nH]2)cc1 [CBK269544] | 88.7
90 | O=C(CCSc1ccccc1)Nc1ccccc1C(=O)N1CCCCC1 [CBK269545] | 87.3
91 | CCN1CCN(Cc2nc3c(c(=O)n(C)c(=O)n3C)n2CCc2ccccc2)CC1 [CBK269547] | 110
